# In patent US12552751B2, “Crystal forms A, B, C, D, E, F and G of selumetinib sulfate and preparation methods thereof” (Chunghwa Chemical Synthesis & Biotech Co. Ltd., priority 2023, dated 2026):
# Assays:
# [1] = Stability of crystal forms in a constant-humidity and constant-temperature cabinet; format: physicochemical; settings: for Crystal form after exposure, 80° C. and 75% RH, 1 day / Crystal form after exposure, 80° C. and 75% RH, 3 days: powder; for Crystal form stability under 80° C. and 75% RH (text summary of Table 2): time not stated
# Experimental: The stability of crystal forms A, B, C, D, E, F and G of selumetinib sulfate was tested by placing the different crystal forms of selumetinib sulfate into a constant-humidity and constant-temperature cabinet, where the powder of each crystal form was exposed to a temperature of 80° C. and a relative humidity (RH) of 75%.
# [2] = solid; cited from earlier work
# [3] = cited from earlier work
smiles,measurement,setting,value
"Cn1cnc2c(F)c(Nc3ccc(Br)cc3Cl)c(C(=O)NOCCO)cc21.O=S(=O)(O)O [Crystal form A, selumetinib sulfate]","Crystal form after exposure, 80° C. and 75% RH, 1 day",[1]; listed as A,A turned into C
same,"Crystal form after exposure, 80° C. and 75% RH, 3 days",[1]; listed as A,A turned into C
same,Crystal form stability under 80° C. and 75% RH (text summary of Table 2),[1]; listed as crystal form A,turned into crystal form C
"Cn1cnc2c(F)c(Nc3ccc(Br)cc3Cl)c(C(=O)NOCCO)cc21.O=S(=O)(O)O [Crystal form F, selumetinib sulfate]","Crystal form after exposure, 80° C. and 75% RH, 1 day",[1]; listed as F,Remained F
same,"Crystal form after exposure, 80° C. and 75% RH, 3 days",[1]; listed as F,Remained F
same,Crystal form stability under 80° C. and 75% RH (text summary of Table 2),[1]; listed as F,remained unchanged
"Cn1cnc2c(F)c(Nc3ccc(Br)cc3Cl)c(C(=O)NOCCO)cc21.O=S(=O)(O)O [Crystal form B, selumetinib sulfate]","Crystal form after exposure, 80° C. and 75% RH, 1 day",[1]; listed as B,Remained B
same,"Crystal form after exposure, 80° C. and 75% RH, 3 days",[1]; listed as B,Remained B
same,Crystal form stability under 80° C. and 75% RH (text summary of Table 2),[1]; listed as B,remained unchanged
"Cn1cnc2c(F)c(Nc3ccc(Br)cc3Cl)c(C(=O)NOCCO)cc21.O=S(=O)(O)O [Crystal form D, selumetinib sulfate]","Crystal form after exposure, 80° C. and 75% RH, 1 day",[1]; listed as D,Remained D
same,"Crystal form after exposure, 80° C. and 75% RH, 3 days",[1]; listed as D,Remained D
same,Crystal form stability under 80° C. and 75% RH (text summary of Table 2),[1]; listed as D,remained unchanged
"Cn1cnc2c(F)c(Nc3ccc(Br)cc3Cl)c(C(=O)NOCCO)cc21.O=S(=O)(O)O [Crystal form G, selumetinib sulfate]","Crystal form after exposure, 80° C. and 75% RH, 1 day",[1]; listed as G,Remained G
same,"Crystal form after exposure, 80° C. and 75% RH, 3 days",[1]; listed as G,Remained G
same,Crystal form stability under 80° C. and 75% RH (text summary of Table 2),[1]; listed as G,remained unchanged
"Cn1cnc2c(F)c(Nc3ccc(Br)cc3Cl)c(C(=O)NOCCO)cc21.O=S(=O)(O)O [Crystal form E, selumetinib sulfate]","Crystal form after exposure, 80° C. and 75% RH, 1 day",[1]; listed as E,Remained E
same,"Crystal form after exposure, 80° C. and 75% RH, 3 days",[1]; listed as E,Remained E
same,Crystal form stability under 80° C. and 75% RH (text summary of Table 2),[1]; listed as E,remained unchanged
"Cn1cnc2c(F)c(Nc3ccc(Br)cc3Cl)c(C(=O)NOCCO)cc21.O=S(=O)(O)O [Crystal form C, selumetinib sulfate]","Crystal form after exposure, 80° C. and 75% RH, 1 day",[1]; listed as C,Remained C
same,"Crystal form after exposure, 80° C. and 75% RH, 3 days",[1]; listed as C,Remained C
same,Crystal form stability under 80° C. and 75% RH (text summary of Table 2),[1]; listed as C,remained unchanged
Cn1cnc2c(F)c(Nc3ccc(Br)cc3Cl)c(C(=O)NOCCO)cc21.O=S(=O)(O)O [Selumetinib sulfate],Hygroscopicity,[2],non-hygroscopic
same,Solubility in acetonitrile,[3]; acetonitrile,slightly soluble
same,Solubility in ethanol,[3]; ethanol,slightly soluble
same,Solubility in water,[3]; water,very low solubility
